Test results taken from patent US20180344808A1, “HAPTOGLOBIN DERIVATIVE FOR TREATMENT OF SEPSIS AND ACETAMINOPHEN-INDUCED LIVER DAMAGE” (THE FEINSTEIN INSTITUTE FOR MEDICAL RESEARCH, priority 2017, published 2018).
No end group written: not given here.

How the values were obtained:
HMGB1 = target: T1, HMGB1 (Homo sapiens, UniProt P09429); assay: Surface plasmon resonance (BIAcore) analysis of binding to HMGB1
T1 sequence (P09429 1-215): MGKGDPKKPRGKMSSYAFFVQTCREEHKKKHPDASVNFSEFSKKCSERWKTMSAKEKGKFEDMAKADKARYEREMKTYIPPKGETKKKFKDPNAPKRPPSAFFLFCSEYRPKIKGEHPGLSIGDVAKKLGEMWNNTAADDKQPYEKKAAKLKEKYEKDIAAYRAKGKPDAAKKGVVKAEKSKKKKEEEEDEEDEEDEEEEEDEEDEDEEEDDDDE
Text: FIG. 2A-2B: 2A. Human haptoglobin has three phenotypes and contains α and β subunits. 2B. […] Data shown is representative of 3 separate experiments.
(§1) FIG. 6A-6C: 6A. Schematics of haptoglobin (Hp) β and Hp β peptide (SEQ ID NO:1). 6B. […] 6C. […] N=5.
Haptoglobin (Hp) β binds to HMGB1: Human haptoglobin has three phenotypes and contains α and β subunits.
(§2) Haptoglobin β peptide retains the activity to bind and inhibit HMGB1 toxicity. […] (See FIG. 6C).

[1] = tested on: HMGB1-induced TNF release in primary mouse macrophages; assay: Inhibition of HMGB1-induced TNF release in primary mouse macrophages; assay type: cell-based; settings: N=5, result in words
Text: as §1, §2

CLP-induced sepsis = assay: Survival in cecal ligation and puncture (CLP)-induced sepsis; assay type: in vivo, mice
Text: (§3) Haptoglobin is a complex protein consisting of α and β subunits (Yueh S C et al. J Chromatography, 2007). […] Administration of haptoglobin β subunit protects against lethality in mice with CLP-induced sepsis (CLP survival=85% in haptoglobin β-treated versus 50% in vehicle-treated group; n=22 mice per group, P<0.05) and in experimental acetaminophen-induced liver injury (Survival in haptoglobin β treated group=80% versus 35% in vehicle control group, P<0.05, n=20 mice per group). Screening of a peptide library of the haptoglobin β identified a critical region ([…], residues #278-305 in the B subunit) that retains the ability to inhibit HMGB1-induced TNF release from cultured macrophages. Taken together, these findings reveal a novel mechanism for haptoglobin modulation of the inflammatory action of HMGB1, with significant implications for developing experimental strategies targeting HMGB 1-dependent inflammatory diseases.
N=16 mice/group. […] Recombinant haptoglobin β (10 or 100 μg/mouse) was given once a day for 3 days starting at 24 hours after CLP surgery (N=25 mice/group). (See FIG. 5A-5B).

[2] = tested on: acetaminophen-induced liver injury; assay: Survival in experimental acetaminophen-induced liver injury; assay type: in vivo; settings: mice; vehicle control group 35%; n=20 per group; P<0.05
Text: as §3
Acetaminophen-induced liver injury: Administration of haptoglobin β subunit protects against lethality in mice with experimental acetaminophen-induced liver injury (survival in haptoglobin β treated group=80% versus 35% in vehicle control group, P<0.05, n=20 mice per group).

[3] = tested on: HMGB1-induced TNF release in murine macrophage-like RAW 264.7 cells; assay: Inhibition of HMGB1-induced TNF release in RAW 264.7 cells; assay type: cell-based
Description: FIG. 3A-3B: HMGB1 stimulated TNF release in murine macrophage-like RAW 264.7 cells. 3A. The addition of haptoglobin produced a dose-dependent attenuation of the HMGB1-induced TNF release (up to 90% inhibition at 100 μg/ml). 3B. […] N=3-5 experiments. *: P<0.05 vs. HMGB1 alone.

[4] = target: T2, Haptoglobin beta subunit (human) (human, UniProt P00738 162-406); assay: surface plasmon resonance
T2 construct: also called haptoglobin β; Hp β
T2 sequence: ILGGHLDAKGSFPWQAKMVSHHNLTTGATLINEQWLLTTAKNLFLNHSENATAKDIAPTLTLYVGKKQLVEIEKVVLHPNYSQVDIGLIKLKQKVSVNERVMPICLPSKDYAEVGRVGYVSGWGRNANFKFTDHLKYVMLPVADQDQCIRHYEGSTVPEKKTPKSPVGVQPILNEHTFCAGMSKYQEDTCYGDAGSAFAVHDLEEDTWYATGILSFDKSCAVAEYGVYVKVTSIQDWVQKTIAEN

Molecule: GYVSGWGRNANFKFTDHLKYVMLPVAD [Hpβ peptide]
- Kd (HMGB1; BIAcore analysis): ~17000 nM
- inhibition of HMGB1-induced TNF release [1]: dose-dependently inhibited

Molecule: haptoglobin β: Haptoglobin beta subunit (human), SEQ ID NO:3; recombinant
- Kd (HMGB1; surface plasmon resonance, representative of 3 separate experiments): 29 nM
- rescue from death after CLP (CLP-induced sepsis; haptoglobin KO mice, doses as low as 100 μg per animal per day, once a day for 3 days starting 24 hours after CLP, N=25 mice/group): rescued from death
- CLP survival (CLP-induced sepsis; mice with CLP-induced sepsis, vehicle-treated group 50%, n=22 per group, P<0.05): 85%
- likelihood of survival vs vehicle-treated control after CLP (CLP-induced sepsis; wild type mice, 200 μg/mouse injected IP, N=16 mice/group, P<0.05): twice as likely to survive
- Survival in acetaminophen-induced liver injury [2]: 80%
- inhibition of HMGB1-induced TNF release ([3]; result in words): as effective as haptoglobin

B1: HMGB1 (ligand)
chain: T1 sequence (P09429 1-215)
notes: also called extracellular HMGB1
- Kd [4]: 29 nM

B2: haptoglobin: full-length haptoglobin, acute phase protein with α and β subunits; mature human sequence SEQ ID NO:2 (protein, listed as Homo sapiens)
chain: VDSGNDVTDIADDGCPKPPEIAHGYVEHSVRYQCKNYYKLRTEGDGVYTLNDKKQWINKAVGDKLPECEADDGCPKPPEIAHGYVEHSVRYQCKNYYKLRTEGDGVYTLNNEKQWINKAVGDKLPECEAVCGKPKNPANPVQRILGGHLDAKGSFPWQAKMVSHHNLTTGATLINEQWLLTTAKNLFLNHSENATAKDIAPTLTLYVGKKQLVEIEKVVLHPNYSQVDIGLIKLKQKVSVNERVMPICLPSKDYAEVGRVGYVSGWGRNANFKFTDHLKYVMLPVADQDQCIRHYEGSTVPEKKTPKSPVGVQPILNEHTFCAGMSKYQEDTCYGDAGSAFAVHDLEEDTWYATGILSFDKSCAVAEYGVYVKVTSIQDWVQKTIAEN
- protection in intra-abdominal sepsis (CLP) (CLP-induced sepsis; wild type and haptoglobin-gene deficient animals, result in words): confers significant protection
- inhibition of HMGB1-induced TNF release ([3]; at 100 μg/ml, dose-dependent): up to 90%
